Reference: US9498513B2, “Antimicrobial bacteria strains and uses thereof” (priority 2010, dated 2016)

How the values were obtained:
[1] = test system: A. Baumannii (MDR); test: Antimicrobial activity against susceptible and resistant strains (dilution); format: cell-based, Acinetobacter baumannii; settings: given as dilution ratio; antibiotics 1.28 mg/ml
Description: (§1) A concentrated antimicrobial compound (CAC) was prepared as an antimicrobial agent. 2.1 L of an overnight bacterial culture of G346a was centrifuged at 10,000× g for 20 min, and then subject to 0.2 μm filtration. The supernatant was subject to 10-15% TCA precipitation for 1 hour, and then centrifugation at 4,000× for 20 min. The pellet was re-suspended in 3 mL 50 mM NH4HCO3, and then neutralized with 320 μL NH4OH. The resulting concentrated antimicrobial compound (CAC) was tested for its antimicrobial activity against susceptible and resistant strains as shown in TABLE 5.

[2] = test system: S. aureus (MRSA); test: as above; format: cell-based, Staphylococcus aureus; settings: given as dilution ratio; antibiotics 1.28 mg/ml
Description: as §1

SMILES	antimicrobial activity A. Baumannii (MDR) [1]	antimicrobial activity S. aureus (MRSA) [2]
CC1(C)S[C@@H]2[C@H](NC(=O)C(C(=O)O)c3ccccc3)C(=O)N2[C@H]1C(=O)O (stereo partly shown) [Carbenicillin]	No Inhibition	No
CC1(C)S[C@@H]2[C@H](NC(=O)[C@H](N)c3ccccc3)C(=O)N2[C@H]1C(=O)O [Ampicillin]	No Inhibition	No
